Assay results from patent US7307102B2, “Method of preventing or treating estrogen-dependent diseases and disorders” (Duke University, priority 1997, dated 2007).

Key:
human ER = target: T1, human ER (Homo sapiens, UniProt P03372); type: cell-based; details: MCF-7 cells, in the presence of 17-β-estradiol, 48 h, FIG. 12
T1 construct: expressed in transfected cells; host or cells: MCF-7

ER-VP16 = ER-VP16 reporter of nuclear localization and DNA binding status of ER; type: cell-based
Source text: This was addressed using a modified ER (ER-VP16) to report on the nuclear localization and the DNA binding status of ER within a cell following ligand binding. This modified protein behaves exactly like ER in all respects except it activates transcription upon interaction with an estrogen response element (ERE) independent of the nature of the bound ligand (McDonnell et al, Mol. Endocrinol. 9:659-669 (1995)).

MCF-7 cells = assay: [3H]-thymidine incorporation, E2 stimulated MCF-7 cell proliferation; type: cell-based, human; details: FIG. 19
Protocol: Experimental Design: Plate between 25,000 and 50,000 cells per well onto 24-well plates. Cells are plated in phenol red-free media. After attachment, cells are stimulated with either antiestrogen alone or estrogen and antiestrogen. Induction time ranges from 12-48 hours, depending on experiment.
Add 4λ (4 μCi) thymidine, [methyl-^3H]-to each well.
Incubate at 37° C. for 2-4 hours.
Aspirate media and wash twice with ice cold PBS.
Wash once with ice cold 10% TCA (trichloroacetic acid).
Add 2 mL 10% TCA to each well.
Incubate at 4° C. for 1-2 hours.
Transfer each well to scintillation vial containing 2 mL scintillation fluid.

ER-TAF1 = assay: C3 promoter-luciferase cotransfection assay in HepG2 cells, ER-TAF1 (AF-2 disrupted); type: cell-based, human; details: for agonist activity on ER-TAF1: ER-TAF1, compound alone, FIG. 1B
Source text: (§1) FIGS. 1A and 1B. […] The human C3 promoter (−1807 to +58) fused to the firefly luciferase reporter gene was transfected along with an expression plasmid containing (FIG. 1A) the wild-type human estrogen receptor (ERwt), or (FIG. 1B) a mutated ER in which the AF-2 function had been disrupted (ER-TAFl) into HepG2 cells and tested for transcriptional activation in the presence of increasing concentrations of ER-modulator as indicated. Transfections were normalized for efficiency and cell number by cotransfecting an expression plasmid containing β-galactosidase. The normalized response was obtained by dividing light units by the activity of β-galactosidase as measured in an enzymatic assay. Triplicate transfections were performed. The data shown are representative of multiple experiments performed under similar conditions.
(§2) FIGS. 2A-2C. […] FIG. 2A. […] FIG. 2B. […] FIG. 2C. […] Transfections were normalized for efficiency and cell number by cotransfecting an expression plasmid containing β-galactosidase. The normalized response was obtained by dividing light units by the activity of β-galactosidase as measured in an enzymatic assay. Representative assays are shown in which triplicate transfections were performed. Error bars represent the standard error of the mean (SEM).
(§3) HepG2 cells were maintained in Modified Eagles Medium (MEM) (Life Technologies, Grand Island, N.Y.) plus 10% Fetal Calf Serum (FCS) (Life Technologies). Cells were plated in 24 well plates (coated with gelatin) 24 hours prior to transfection. DNA was introduced into the cells using Lipofectin (Life Technologies). Briefly, triplicate transfections were performed using 3 μg of total DNA. For standard transfections, 500 ng of pCMV-β-Gal (normalization vector), 1500 ng reporter (variable) and 1000 ng receptor (pRST7-hER (Dana et al, Mol. Endocrinol. 8:1193-1207 (1994)) were used for each triplicate. Incubation of the cells with Lipofectin proceeded for 3 hrs, at which time media was removed, cells were washed with PBS and then induced with the appropriate hormone diluted in phenol red-free media containing 10% charcoal stripped CS (Cyclone Inc.). Incubation with hormone continued for 48 hrs, after which cells were lysed and assayed for luciferase and β-galactosidase activity as previously described (Norris et al, JBC 270:22777-22782 (1995)).
(§4) A series of in vitro screens have been developed that permit the classification of ER-modulators into four mechanistically distinct groups (Tzukerman et al, Mol. Endocrinol. 8:21-30 (1994)). […] Using these assays, it has been possible to derive “fingerprints” of known ER-modulators (McDonnell et al, Mol. Endocrinol. 9:659-669 (1995)).
(§5) Subsequently, the transfected cells were assayed for luceriferase and β-galactosidase activity. Each data point in this experiment represents the average of triplicate determinations of the transcriptional activity under given experimental conditions.

[1] = target: T2, wild-type human estrogen receptor (ERwt) (Homo sapiens, UniProt P03372); assay: C3 promoter-luciferase cotransfection assay in HepG2 cells, ERwt; type: cell-based
T2 construct: expressed in transfected cells; host or cells: HepG2
T2 sequence (P03372 1-595): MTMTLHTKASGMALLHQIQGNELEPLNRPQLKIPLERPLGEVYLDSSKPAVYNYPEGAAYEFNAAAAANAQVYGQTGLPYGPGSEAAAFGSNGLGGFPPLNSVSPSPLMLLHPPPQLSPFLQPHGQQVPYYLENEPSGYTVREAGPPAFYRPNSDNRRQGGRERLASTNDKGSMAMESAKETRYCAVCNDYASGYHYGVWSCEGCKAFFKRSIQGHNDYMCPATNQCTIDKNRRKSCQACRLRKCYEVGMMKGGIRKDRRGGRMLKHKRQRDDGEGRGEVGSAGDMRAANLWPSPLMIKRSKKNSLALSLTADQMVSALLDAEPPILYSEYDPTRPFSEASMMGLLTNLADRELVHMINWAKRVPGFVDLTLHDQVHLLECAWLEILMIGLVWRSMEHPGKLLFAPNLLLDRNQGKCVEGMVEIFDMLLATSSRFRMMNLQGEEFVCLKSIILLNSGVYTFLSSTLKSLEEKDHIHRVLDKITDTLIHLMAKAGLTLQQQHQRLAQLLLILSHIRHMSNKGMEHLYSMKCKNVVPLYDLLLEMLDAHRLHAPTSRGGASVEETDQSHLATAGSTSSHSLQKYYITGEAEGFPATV
Source text: as §1, §2, §3, §4, §5

ERβ = ERβ (Homo sapiens, UniProt Q92731); details: HeLa cells, estradiol (10^−9), FIG. 14B
Sequence of ERβ (Q92731 whole entry): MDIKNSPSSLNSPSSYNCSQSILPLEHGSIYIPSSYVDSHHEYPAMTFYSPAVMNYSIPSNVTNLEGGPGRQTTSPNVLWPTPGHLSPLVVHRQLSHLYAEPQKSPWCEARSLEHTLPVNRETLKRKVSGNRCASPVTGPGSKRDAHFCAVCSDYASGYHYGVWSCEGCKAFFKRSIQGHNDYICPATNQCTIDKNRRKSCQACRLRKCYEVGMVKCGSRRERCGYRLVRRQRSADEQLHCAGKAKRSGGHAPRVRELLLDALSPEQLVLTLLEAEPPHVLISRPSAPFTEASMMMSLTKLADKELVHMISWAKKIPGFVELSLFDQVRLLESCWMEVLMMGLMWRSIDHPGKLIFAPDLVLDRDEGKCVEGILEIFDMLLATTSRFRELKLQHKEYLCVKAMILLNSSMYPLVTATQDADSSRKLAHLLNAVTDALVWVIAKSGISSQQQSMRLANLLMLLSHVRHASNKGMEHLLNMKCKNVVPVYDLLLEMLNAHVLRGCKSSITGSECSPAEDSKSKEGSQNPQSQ
Source text: (§6) HeLa cells were transfected with either an ERα expression vector (see FIG. 14A) or an ERβ expression vector (see FIG. 14B) together with an estrogen responsive ERE-TK-luceriferase reporter construct.

ERα = target: T3, ERα (Homo sapiens, UniProt P03372); type: cell-based; details: HeLa cells, estradiol (10^−9), FIG. 14A
T3 construct: expressed in transfected cells; host or cells: HeLa
Source text: as §6

[2] = Bone mineral density in ovariectomized rats (DEXA, pQCT); type: in vivo, rat; details: 90-day old OVX rats, oral, 28 days, FIG. 3A
Protocol: FIGS. 3A and 3B. […] FIG. 3A. […] FIG. 3B.
Animal preparation. […] At sacrifice, animals were euthanized with C02, body weights were recorded and the uteri were removed and weighed. Uterus, vagina and mammary tissue were fixed in 10% neutral buffered formalin. Samples for histologic processing were taken from the mid-point of each uterine horn. Tissue samples were embedded in paraffin, stained with haematoxylin and eosin and evaluated microscopically. Lumbar vertebrae and both left and right tibiae were excised. Total blood cholesterol was measured (Roche Biomedical Laboratories).

[3] = Uterotrophic assay in immature rats; details: 21 day old immature rats, oral
Protocol: FIG. 5. […] The data shown represent the mean value (±SEM).
Twenty-one day old female Sprague-Dawley rats (30-35 gms) were obtained from Harlan or Taconic Laboratories. Animals were sorted randomly into treatment groups of five, and average weights were recorded for each treatment group. Weights were recorded on each treatment day. […] On day of dosing, drug was diluted in 0.5% methyl cellulose, viscosity of 2% at 25° C.:400 centipoises (Sigma, St. Louis, Mo.)). Oral dosing by gavage was based on a total volume of 10 ml/kg body weight. […] Subcutaneous dosing was based on a total of 2 ml/kg body weight. […] On day 4, animals were sacrificed by C02 asphyxiation, body weights were obtained and uteri were removed, blotted and weighed. Data were expressed as uterine weight/body weight.
In this assay, uterine wet weight was used as a measure of ER-agonist activity in this tissue (FIG. 5).

MCF-7/LCC2 = assay: LCC2 study, MCF-7/LCC2 tumors in nude mice; type: in vivo, mouse; details: after 8 weeks, 1.0 mg every three days, FIG. 11
Protocol: This experiment was conducted to determine the ability of GW5638 to retard the growth of this cell line in nude mice relative to control or tamoxifen treated tumors.
40 OVX mice were prepared to accept cells and grouped as follows:
Control animals received nothing and groups 3 and 4 received 0.1 ml injections in corn oil every three days. Tumors were measured Q3 days with calipers, and the area calculated as follows: Area=½×w/2×π.

Structure (SMILES): CC/C(=C(\c1ccc(O)cc1)c1ccc(/C=C/C(=O)O)cc1)c1ccccc1 [GW7604]
- antiestrogen activity on C3-Luc transcription (human ER): Functions as an Antiestrogen
- interaction of ER with target DNA (ER-VP16): facilitate efficient interactions of ER with target DNA
- E2 stimulated MCF-7 cell proliferation (MCF-7 cells): Inhibits E2 Stimulated MCF-7 Cell Proliferation
- inhibition of the partial agonist activity of raloxifene on ER-TAF1 (ER-TAF1; ER-TAF1): inhibited
- inhibition of estradiol- and tamoxifen-induced ER-TAF1 transcriptional activity (ER-TAF1; ER-TAF1, FIG. 2B): capable of inhibiting
- agonist activity on ER-TAF1 (ER-TAF1): functionally inactive
- agonist activity on ER mutants (ER-TAF1; any ER-mutant examined, FIG. 13): does not exhibit agonist activity
- reversal of the inverse agonist activity of ICI182,780 ([1]; C3 promoter, co-addition with ICI182,780, FIG. 2C): completely reversed
- inhibition of the agonist activity manifested by tamoxifen or estradiol ([1]; ERwt, 10^−8M 17-β-estradiol or tamoxifen, FIG. 2A): inhibited
- agonist / inverse agonist activity on the C3 promoter ([1]; ERwt, compound alone, FIG. 1A/2A): do not demonstrate any agonist or antagonist activity
- inhibition of estradiol activated transcription, ERβ (ERβ): potent pan-antagonist of both forms of the human estrogen receptor
- inhibition of estradiol activated transcription, ERα (ERα): potent pan-antagonist of both forms of the human estrogen receptor

Structure (SMILES): C[C@]12CC[C@@H]3c4ccc(O)cc4C[C@@H](CCCCCCCCC[S+]([O-])CCCC(F)(F)C(F)(F)F)[C@H]3[C@@H]1CC[C@@H]2O (stereo partly drawn) [ICI182,780, reference compound]
- interaction of ER with target DNA (ER-VP16): facilitate efficient interactions of ER with target DNA
- agonist activity on ER-TAF1 (ER-TAF1): functionally inactive

Structure (SMILES): C[C@]12CC[C@@H]3c4ccc(O)cc4CC[C@H]3[C@@H]1CC[C@@H]2O [estradiol, 17β-estradiol, reference compound]
- bone mineral density, lumbar spine [2]: BMD was maintained

Structure (SMILES): O=C(c1ccc(OCCN2CCCCC2)cc1)c1c(-c2ccc(O)cc2)sc2cc(O)ccc12 [raloxifene, reference compound]
- inhibition of estradiol activated transcription, ERβ (ERβ): neither raloxifene nor idoxifene manifest potent antagonist activity

Structure (SMILES): CC/C(=C(\c1ccccc1)c1ccc(OCCN(C)C)cc1)c1ccccc1 [tamoxifen, reference compound]
- lowest dose with uterotrophic activity [3]: 0.1 µmol/kg/day
- tumor growth (MCF-7/LCC2): equally inhibit growth of this tumor
